Experimental data as given in article PMC12645083, “Microwave‐Enhanced Synthesis of 2‐Styrylquinoline‐4‐Carboxamides With Promising Anti‐Lymphoma Activity” (Archiv Der Pharmazie, 2025).

What was measured:
Type in all cases: cell-based, human
VL51 [1] = experiment: Cell-cycle analysis (flow cytometry); conditions: 2 µM, 48 h
Protocol: Cells were plated in 12‐well plates at 0.2 × 10⁶ cells/mL in 1 mL of complete medium. After 24 h, cells were treated with the specified compound concentrations. Following an additional 24 h, cells were harvested, centrifuged, and fixed in 70% ice‐cold ethanol. Cells were then stained and processed as previously described. Data acquisition was performed using a Coulter Cytomics FC500 flow cytometer (Beckman Coulter).

VL51 [2] = experiment: EdU incorporation assay (DNA synthesis); conditions: 1 and 2 µM, 48 h
Protocol: (§1) For evaluation of DNA synthesis, cells were plated in 12‐well plates at 0.2 × 10⁶ cells/mL in 1 mL of complete medium. After 24 h, cells were treated with the indicated compound concentrations. EdU (5‐ethynyl‐2‐deoxyuridine) incorporation was performed according to the Baseclick EdU Flow Cytometry Kit instructions (Sigma Aldrich, St. Louis, MO, USA) as previously described. EdU‐FITC incorporation was detected using a CytoFLEX flow cytometer (Beckman Coulter, Brea, CA, USA) and analyzed with FlowJo software v.10.7.1 (BD Biosciences).

TOLEDO [3] = experiment: EdU incorporation assay (DNA synthesis); conditions: 1 and 2 µM, 48 h
Protocol: as §1

VL51 [4] = experiment: Apoptosis assay, Annexin V/PI staining; conditions: 2 µM, 48 h
Protocol: (§2) For apoptosis evaluation, cells were plated in 12‐well plates at 0.2 × 10⁶ cells/mL in 1 mL of complete medium. After 24 h, cells were treated with the indicated compound concentrations. After 48 h, cells were harvested, centrifuged, and stained with Annexin V‐FITC and propidium iodide (PI) using the Annexin‐V Fluos kit (Roche Diagnostics), following the manufacturer's instructions. Fluorescence was analyzed using a Coulter Cytomics FC500 flow cytometer (Beckman Coulter) with detection in the FL1 and FL3 channels, respectively.

TOLEDO [5] = experiment: Apoptosis assay, Annexin V/PI staining; conditions: 2 µM, 48 h
Protocol: as §2

VL51 [6] = experiment: Mitochondrial membrane potential analysis (TMRE); conditions: 24 h of treatment
Protocol: (§3) Cells were plated in 12‐well plates at 0.2 × 10⁶ cells/mL in 1 mL of complete medium. After 24 h, cells were treated with the indicated compound concentrations. Following a further 24‐h incubation, cells were stained with TMRE (Invitrogen, US) at 1 µM for 20 min. After washing with 1X PBS, fluorescence was detected using a CytoFLEX flow cytometer (Beckman Coulter) and analyzed with FlowJo software v.10.7.1.

TOLEDO [7] = experiment: Mitochondrial membrane potential analysis (TMRE); conditions: 24 h of treatment
Protocol: as §3

## O=C(Nc1ccc([N+](=O)[O-])cc1)c1cc(/C=C/c2ccccc2)nc2ccccc12 [4i, (E)-N-(4-nitrophenyl)-2-styrylquinoline-4-carboxamide]
VL51 [1]
  Cell-cycle distribution: significant accumulation of cells in the G₂/M phase
VL51 [2]
  DNA synthesis (EdU incorporation): marked, dose‐dependent reduction in DNA synthesis
TOLEDO [3]
  DNA synthesis (EdU incorporation): marked, dose‐dependent reduction in DNA synthesis
VL51 [4]
  Mode of cell death (Annexin V/PI): induced late apoptosis and necrosis
TOLEDO [5]
  Mode of cell death (Annexin V/PI): induced late apoptosis and necrosis
VL51 [6]
  Mitochondrial membrane depolarization (TMRE-negative cells): increased percentage of TMRE‐negative cells
TOLEDO [7]
  Mitochondrial membrane depolarization (TMRE-negative cells): increased percentage of TMRE‐negative cells
